From US20140357512A1, “HISTONE DEACETYLASE (HDAC) BIOMARKERS IN MULTIPLE MYELOMA” (priority 2013, published 2014)

System: human myeloma cell line MM.1S
Assay: SILAC acetylated-lysine peptide profiling, HDAC inhibitor vs DMSO (light/heavy ratio)
Assay type: cell-based
From the text: An embodiment of the invention comprises utilizing the SILAC method in order to quantitate changes in protein expression between two or more populations of cells. The SILAC method is a technique based on mass spectrometry that detects differences in protein abundance among samples using non-radioactive isotopic labeling. The SILAC method is known in the art, and described in detail in Ong et al., “Stable Isotope Labeling by Amino Acids in Cell Culture, SILAC, as a Simple and Accurate Approach to Expression Proteomics”, Molecular & Cellular Proteomics, vol. 1, pp. 376-386 (2002), which is incorporated herein by reference in its entirety.
Briefly, the SILAC method involves growing two populations of cells in cell culture. The first population of cells is grown in growth media containing normal amino acids (“normal media”). The second population of cells is grown in media lacking a standard essential amino acid (such as lysine), but is then supplemented with a non-radioactive, isotopically labeled form of that essential amino acid (such as lysine labeled with ^13C atoms, rather than normal ^12C atoms), which is called “heavy media”. When the two populations of cells are each growing in the medium, they incorporate the amino acids into all of their proteins. The growth of cells maintained in the heavy media is no different from that in normal media. All peptides containing the heavy amino acids are heavier than their normal counterparts. The cells from each of the two populations of cells are lysed. The lysates from each of the two cell populations are then combined. The combined cell lysates are then analyzed by mass spectrometry. Pairs of chemically identical peptides of different stable isotope composition can be differentiated in a mass spectrometer due to their difference in mass. The ratio of peak intensities in the mass spectrum for such peptide pairs reflects the abundance ratio for the two proteins.
This example describes SILAC studies that were performed to compare the effects of three different HDAC inhibitors (Compound A, Compound B, and tubastatin A) to a control on a human multiple myeloma cell line. The HDAC inhibitors were also compared amongst themselves to determine differences in their effects.
A human myeloma cell line MM.1S was grown using either ^12C (light) or ^13C (heavy) lysine containing culture medium. The “heavy” cells were treated with DMSO as the control, and the “light” cells were treated with a single HDAC inhibitor at 37° C. for 6 hours. The heavy and light cells were lysed, and the lysates were mixed in 1:1 ratio and digested with the protease trypsin. The acetylated lysine containing peptides (due to the action of the HDAC inhibitor) in the digested peptide pool were captured by a non-specific anti-acetylated lysine antibody cocktail (the antibodies identify both light and heavy acetylated peptides), and subjected to mass spectrometry analysis in order to identify thousands of individual peptides.
Thousands of peptides were identified in pairs (^12C and ^13C) due to their known mass differences. The amino acid sequence and quantitative ratio (Light/Heavy) of a given peptide in two differentially treated cell lysates were then determined and annotated with their possible protein (gene) sources.
As stated above, three HDAC inhibitors (Compound A, Compound B, and Tubastatin A) were used. Thus, the SILAC method was performed three times, with a different HDAC inhibitor compared to a control each time. Accordingly, there are three pairs of quantitative data in the table below, i.e., Compound A:DMSO, Compound B:DMSO, and Tubastatin A:DMSO. A cut-off of 1.30 fold of change (increase or decrease) was then used to determine “changed” or “+” in the table, and any peptides with a fold of change less than 1.3 fold were determined to be “unchanged” or “0” in the table. Those peptides that were not identified were marked as “NA” in the table. […]

Q: For `O=C(CCCCCCNC(=O)c1cnc(N(c2ccccc2)c2ccccc2)nc1)NO` [Compound A, 2-(diphenylamino)-N-(7-(hydroxyamino)-7-oxoheptyl)pyrimidine-5-carboxamide], which “light to heavy ratio (L/H ratio), log 2 scale, acetylated peptide KLQK(ac)AALLK (SEQ ID NO: 806)” value (Ribosomal protein L14 variant [132], gene RPL14, drug:DMSO) is on record?
A: Its value is 1.00.

Q: And the “light to heavy ratio (L/H ratio) of acetylated peptide […](ac)R (SEQ ID NO: 334)” value (S1 IF1 type family protein [56], EIF1AXP1, drug:DMSO)?
A: Its value is 0.00 log 2.

Q: What about the “L/H ratio of acetylated peptide LAELK(ac)QECLAR (SEQ ID NO: 94)” value (SARNP 17], log 2 scale, drug vs DMSO) of the same compound?
A: The value was 0.00.

Q: What about the “L/H ratio of acetylated peptide (ac)ATETVELHK(ac)LK (SEQ ID NO: 93)” value (SARNP [10], log 2 scale, drug vs DMSO) of the same compound?
A: The value was 0.00.

Q: And the “L/H ratio of acetylated peptide ANLVFK(ac)EIEK (SEQ ID NO: 95)” value (SCP2 [438], log 2 scale, drug vs DMSO)?
A: The value was 0.00.

Q: And the “L/H ratio of acetylated peptide EGQNWLEK(ac)K (SEQ ID NO: 96)” value (SEC11C [147], log 2 scale, drug vs DMSO)?
A: The value was 0.00.

Q: What about the “L/H ratio of acetylated peptide EHTALLK(ac)IEGVYAR” value (SEQ ID NO: 630, 60S ribosomal protein L35a [29], RPL35A) of the same compound?
A: The value was 0.49 log 2.

Q: What about the “L/H ratio of acetylated peptide FNDGSDEK(ac)KK” value (SEQ ID NO: 631, ATP synthase subunit alpha mitochondrial [239], ATP5A1) of the same compound?
A: Its value is 0.49 log 2.

Q: And the “L/H ratio of acetylated peptide FSK(ac)[…]” value (SEQ ID NO: 632, X-ray repair cross-complementing protein 5 [144], XRCC5)?
A: Its value is 0.50 log 2.

Q: And the “L/H ratio of acetylated peptide LTCEEEEEK(ac)IFGR” value (SEQ ID NO: 633, Isoform Short of Probable global transcription activator SNF2L2 [1302], SMARCA2)?
A: The value was 0.51 log 2.

Q: And the “L/H ratio of acetylated peptide NDEELNK(ac)LLGR” value (SEQ ID NO: 634, Histone H2A type 1-B/E [96], HIST1H2AE, HIST1H2AB, HIST1H2AD, HIST1H2AG, HIST1H2AK, HIST1H2AL, HIST1H2AM, HIST1H2AJ, HIST1H2AI)?
A: Its value is 0.52 log 2.

Q: And the “L/H ratio of acetylated peptide ALEAVFGK(ac)YGR” value (SEQ ID NO: 635, Heterogeneous nuclear ribonucleoprotein G [30], RBMX)?
A: Its value is 0.52 log 2.

Q: What about the “L/H ratio of acetylated peptide TFK(ac)[…]” value (SEQ ID NO: 636, 60S ribosomal protein L3 [103], SNORD43, RPL3) of the same compound?
A: Its value is 0.52 log 2.

Q: What about the “L/H ratio of acetylated peptide YK(ac)[…]” value (SEQ ID NO: 637, Protein disulfide-isomerase [328], P4HB) of the same compound?
A: Its value is 0.52 log 2.

Q: What about the “L/H ratio of acetylated peptide NAEK(ac)YAEEDRR” value (SEQ ID NO: 638, Stress-70 protein mitochondrial [567], HSPA9) of the same compound?
A: The value was 0.52 log 2.

Q: What about the “L/H ratio of acetylated peptide […](ac)DR” value (SEQ ID NO: 639, pyruvate dehydrogenase E1 component subunit alpha somatic form mitochondrial isoform 2 precursor [359], PDHA1) of the same compound?
A: Its value is 0.53 log 2.

Q: And the “L/H ratio of acetylated peptide GVDPK(ac)FLR” value (SEQ ID NO: 640, Ribosomal protein L29 [38], RPL29, RPL29P4)?
A: Its value is 0.53 log 2.

Q: And the “L/H ratio of acetylated peptide LIK(ac)DGLIIR” value (SEQ ID NO: 641, 60S ribosomal protein L19 [46], RPL19)?
A: The value was 0.53 log 2.

Q: And the “L/H ratio of acetylated peptide HLLPK(ac)IR” value (SEQ ID NO: 642, 6-phosphogluconate dehydrogenase decarboxylating [253], PGD)?
A: Its value is 0.53 log 2.

Q: What about the “L/H ratio of acetylated peptide LGK(ac)PSLVR” value (SEQ ID NO: 643, TOB3 [280], ATAD3B) of the same compound?
A: The value was 0.53 log 2.

Q: And the “L/H ratio of acetylated peptide EQIYK(ac)LAK” value (SEQ ID NO: 644, 40S ribosomal protein S13 [39], RPS13)?
A: The value was 0.54 log 2.

Q: And the “L/H ratio of acetylated peptide VEYFLK(ac)WK” value (SEQ ID NO: 645, Chromobox protein homolog 3 [50], CBX3)?
A: The value was 0.54 log 2.

Q: And the “L/H ratio of acetylated peptide HYK(ac)TDFDK” value (SEQ ID NO: 646, Isocitrate dehydrogenase [NADP] mitochondrial [275], IDH2)?
A: The value was 0.54 log 2.

Q: What about the “L/H ratio of acetylated peptide EGYAWAEDK(ac)EHCEEYGR” value (SEQ ID NO: 647, tRNA-splicing ligase RtcB homolog [190], C22orf28) of the same compound?
A: The value was 0.54 log 2.

Q: What about the “L/H ratio of acetylated peptide LAYIAHPK(ac)LGK” value (SEQ ID NO: 648, Ribosomal protein L29 [103], RPL29, RPL29P4) of the same compound?
A: The value was 0.55 log 2.

Q: What about the “L/H ratio of acetylated peptide IFSQETLTK(ac)AQILK” value (SEQ ID NO: 649, Prenylcysteine oxidase 1 [415], PCYOX1) of the same compound?
A: Its value is 0.55 log 2.

Q: And the “L/H ratio of acetylated peptide […](ac)QNK” value (SEQ ID NO: 650, Dihydrolipoyl dehydrogenase mitochondrial [143], DLD)?
A: The value was 0.55 log 2.

Q: And the “L/H ratio of acetylated peptide FYVK(ac)DHR” value (SEQ ID NO: 651, CDGSH iron-sulfur domain-containing protein 1 [37], CISD1)?
A: The value was 0.55 log 2.

Q: What about the “L/H ratio of acetylated peptide SPVNTK(ac)SLFK” value (SEQ ID NO: 652, Isoform 1 of DNA-dependent protein kinase catalytic subunit [1057], PRKDC) of the same compound?
A: Its value is 0.55 log 2.

Q: What about the “L/H ratio of acetylated peptide HIVK(ac)EFK” value (SEQ ID NO: 653, Stress-70 protein mitochondrial [288], HSPA9) of the same compound?
A: The value was 0.56 log 2.

Q: What about the “L/H ratio of acetylated peptide MYKEEGLK(ac)AFYK” value (SEQ ID NO: 654, Isoform A of Phosphate carrier protein mitochondrial [214], SLC25A3) of the same compound?
A: Its value is 0.56 log 2.

Q: What about the “L/H ratio of acetylated peptide LDAQVK(ac)ELVLK” value (SEQ ID NO: 655, Dolichyl-diphospho-oligosaccharide--protein glycosyltransferase subunit 1 precursor [598], RPN1) of the same compound?
A: Its value is 0.56 log 2.

Q: What about the “L/H ratio of acetylated peptide GYPTLK(ac)[…]” value (SEQ ID NO: 656, Thioredoxin domain-containing protein 5 [140], TXNDC5, MUTED, MUTED-TXNDC5) of the same compound?
A: Its value is 0.56 log 2.

Q: What about the “L/H ratio of acetylated peptide […](ac)EFR” value (SEQ ID NO: 657, Isoform 1 of Clathrin heavy chain 1 [1264], CLTC) of the same compound?
A: Its value is 0.57 log 2.

Q: What about the “L/H ratio of acetylated peptide YK(ac)EALEQCR” value (SEQ ID NO: 658, Isoform 2 of Antigen peptide transporter 2 [356], TAP2) of the same compound?
A: The value was 0.57 log 2.

Q: What about the “L/H ratio of acetylated peptide YELTGK(ac)FER” value (SEQ ID NO: 659, Annexin A6 [81], ANXA6) of the same compound?
A: The value was 0.57 log 2.
